Experimental data as given in patent publication US8288383B2, “3-methyl-2- ( (2S) -2- (4- (3-methyl-L, 2, 4-oxadiazol-5-YL) phenyl) morpholino) -6- (pyrim-idin-4-yl) pyrimidin-4 (3H) -one as tau protein kinase inhibitor” (Sanofi, priority 2007, dated 2012).
Like-named read-outs stand apart in the source and are kept apart here.

Assays:
tau phosphorylation = assay: Inhibitory activity on tau phosphorylation in vivo (pS396 Western blot of mouse cortex); settings: 10 mg/kg p.o., male CD-1 mice, cortex removed after 1 h, pS396 antibody; ** = statistically significant
Experimental: Test compound was administrated to male CD-1 mice of 5-6 weeks weighing 25-35 g (Charles River Japan, inc.) at 10 mg/kg p.o. (0.5% polyethylen glycol sorbitan monolaurate 80 (Tween80)/water suspension) and after 1 h, mice were decapitated and cortex was promptly removed, followed by being frozen in liquid N2. […] Protein concentrations were determined using DC protein assay kit (BIO-RAD). Supernatants were diluted with sample buffer (62.5 mM Tris-HCl, 25% glycerol, 2% SDS, 0.01% Bromophenol Blue, pH6.8) to adjust the protein concentrations around […] and then boiled for […]. Samples (10 μg) were separated on 10% sodium dodecyl sulfate-polyacrylamide electrophoresis (SDS-PAGE) mini slab gels and transferred onto polyvinylidene difluoride (PVDF) membranes. Membranes were incubated with phosphate buffered saline (PBS) containing 5% non-fat milk for 1h at room temperature and then probed with pS396 anti-body (BIOSOURCE) over night at 4° C. Anti-rabbit IgG horseradish peroxidase (HRP) conjugated anti-body (Promega) was used as secondary anti-body. Membranes were visualized by Enhanced ChemiLuminescence (ECL) kit (Amerasham Bioscience) and detected by LAS1000 (Fuji Photo Film).

CYP2D6 = CYP2D6 (Homo sapiens, UniProt P10635); assay: Inhibitory activity on CYP2D6 (human recombinant CYPs); type: in vitro ADME; settings: human recombinant CYP2D6, substrate ethylene glycol ester of luciferin-6'-methyl ether, 37° C., read-out: CYP 2D6 inhibition, IC50 value
CYP2D6, sequence (P10635 whole entry): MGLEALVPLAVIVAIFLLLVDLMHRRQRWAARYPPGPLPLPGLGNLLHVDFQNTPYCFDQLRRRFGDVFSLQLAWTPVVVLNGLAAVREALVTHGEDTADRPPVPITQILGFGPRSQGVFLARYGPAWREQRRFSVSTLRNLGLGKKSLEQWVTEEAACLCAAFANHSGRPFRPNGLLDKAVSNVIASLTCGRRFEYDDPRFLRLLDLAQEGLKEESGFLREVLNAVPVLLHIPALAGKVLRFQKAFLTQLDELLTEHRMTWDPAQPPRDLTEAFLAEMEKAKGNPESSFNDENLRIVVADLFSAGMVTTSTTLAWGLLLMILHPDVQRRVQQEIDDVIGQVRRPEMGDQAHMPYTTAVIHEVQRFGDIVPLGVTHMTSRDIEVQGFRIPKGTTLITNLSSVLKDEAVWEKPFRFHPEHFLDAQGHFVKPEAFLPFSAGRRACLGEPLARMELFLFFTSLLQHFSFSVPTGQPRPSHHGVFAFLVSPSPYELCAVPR
Experimental: The purpose of this pharmacokinetic study was to investigate the inhibitory effects of test compounds on the specific metabolic activity of human CYP isozymes using human recombinant CYPs in vitro. […] The specific substrate and positive control is ethylene glycol ester of luciferin-6′-methyl ether and quinidine, respectively. The substrate for the CYP isozyme was incubated with human recombinant CYPs in the presence or absence of the test compounds and the metabolic activity of the CYP isozyme was determined. The reaction mixture was preincubated at 37° C. without NADPH generating system. The reaction was started by the addition of NADPH generating system, and then terminated by the addition of acetonitrile. The activities of the human CYP isozymes were measured by fluorescence signal (CYP2D6) of reaction mixture. IC50 value for each compound was calculated by setting the data of reaction mixture without compound as 100% activity.

[1] = probe ethylene glycol ester of luciferin-6'-methyl ether

IC50 (CYP2D6; [1]) [µM] | melting point | IC50 (CYP2D6) [µM] | SMILES | in vivo % phosphorylation against vehicle (tau phosphorylation)
> 50 | – | – | Cn1c(N2CCOC(c3nc(-c4ccccc4)no3)C2)nc(-c2ccncn2)cc1=O (centres unmarked) [Compound 1, 1-Methyl-2-[2-(3-phenyl-[1,2,4]oxadiazol-5-yl)-morpholin-4-yl]-1H-[4,4′]bipyrimidinyl-6-one] | 92.12%
> 25 | – | – | Cn1c(N2CCOC(c3noc(-c4ccccc4)n3)C2)nc(-c2ccncn2)cc1=O (centres unmarked) [Compound 2, 1-Methyl-2-[2-(5-phenyl-[1,2,4]oxadiazol-3-yl)-morpholin-4-yl]-1H-[4,4′]bipyrimidinyl-6-one] | –
> 50 | 179.8 °C (dec.) | – | Cn1ccnc1-c1ccc(C2CN(c3nc(-c4ccncn4)cc(=O)n3C)CCO2)cc1 (centres unmarked) [Compound 4, 1-Methyl-2-{2-[4-(1-methyl-1H-imidazol-2-yl)-phenyl]-morpholin-4-yl}-1H-[4,4′]bipyrimidinyl-6-one] | –
– | 219 °C (dec.) | > 50 | Cc1noc(-c2ccc([C@H]3CN(c4nc(-c5ccncn5)cc(=O)n4C)CCO3)cc2)n1 [Compound of the present invention, 3-Methyl-2-((2S)-2-(4-(3-methyl-1,2,4-oxadiazol-5-yl)phenyl)morpholino)-6-(pyrimidin-4-yl)pyrimidin-4(3H)-one] | 69.86** %
